Test results as given in US20130224110A1, “USE OF ADENOSINE RECEPTOR SIGNALING TO MODULATE PERMEABILITY OF BLOOD-BRAIN BARRIER” (CORNELL UNIVERSITY, priority 2010, published 2013).

How the values were obtained:
EAE = EAE induction and scoring (MOG35-55/CFA/PTX); assay type: in vivo, mice; details: wild type mice, 2 mg/kg (1 mg/kg i.p. and 1 mg/kg s.c.) 1 day prior to EAE induction and daily for 30 days, vs DMSO alone
Source text: Cd73^−/− mice have been previously described (Thompson et al., “Crucial Role for Ecto-5′-Nucleotidase (CD73) in Vascular Leakage During Hypoxia,” J. Exp. Med. 200:1395-1405 (2004), which is hereby incorporated by reference in its entirety) and have been backcrossed to C57BL/6 for 14 generations. Cd73^−/− mice have no overt susceptibility to infection and appear normal based on the size and cellular composition of their lymphoid organs and their T and B cell responses in in vivo and in vitro assays (Thompson et al., “Crucial Role for Ecto-5′-Nucleotidase (CD73) in Vascular Leakage During Hypoxia,” J. Exp. Med. 200:1395-1405 (2004), which is hereby incorporated by reference in its entirety). C57BL/6 and tcrα^−/− mice on the C57BL/6 background were purchased from The Jackson Laboratories. Mice were bred and housed under specific pathogen-free conditions at Cornell University or the University of Turku. For adenosine receptor blockade experiments, mice were given drinking water supplemented with 0.6 g/L of caffeine (Sigma) or 2 mg/kg SCH58261 (1 mg/kg s.c. and 1 mg/kg i.p.) in DMSO (45% vol. in PBS) or 45% DMSO alone starting 1 day before EAE induction and continuing throughout the experiment. All procedures performed on mice were approved by the relevant animal review committee.
EAE was induced by subjecting mice to the myelin oligodendrocyte glycoprotein (“MOG”) EAE-inducing regimen as described in Swanborg, “Experimental Autoimmune Encephalomyelitis in Rodents as a Model for Human Demyelinating Disease,” Clin. Immunol. Immunopathol. 77:4-13 (1995) and Bynoe et al., “Epicutaneous Immunization with Autoantigenic Peptides Induces T Suppressor Cells that Prevent Experimental Allergic Encephalomyelitis,” Immunity 19:317-328 (2003), which are hereby incorporated by reference in their entirety. […] Mice were scored daily for EAE based on disease symptom severity; 0=no disease, 0.5-1=weak/limp tail, 2=limp tail and partial hind limb paralysis, 3=total hind limb paralysis, 4=both hind limb and fore limb paralysis, 5=death. […]
As CD73 catalyzes the breakdown of AMP to adenosine and ARs are expressed in the CNS (Tsutsui et al., “A1 Adenosine Receptor Upregulation and Activation Attenuates Neuroinflammation and Demyelination in a Model of Multiple Sclerosis,” J. Neurosci. 24:1521-1529 (2004)); Rosi et al., The Influence of Brain Inflammation Upon Neuronal Adenosine A2B Receptors,” J. Neurochem. 86:220-227 (2003), which are hereby incorporated by reference in their entirety), it was next determined if AR signaling is important during EAE progression. […] Since CD73 is highly expressed on the choroid plexus (FIG. 6C), it was next determined if ARs are also expressed on the choroid plexus. […]

blood brain barrier = assay: Evans Blue dye extravasation across the blood brain barrier in mice immunized for EAE; assay type: in vivo; details: WT EAE mice, 100 μl 0.01 nM on days 1, 3, 5, 7, 9; dye on day 10
Description: In order to determine if activation of adenosine receptors would induce extravazation of Evans Blue dye across the blood brain barrier (BBB), mice were first treated on day one with NECA, a non-selective adenosine receptor agonist (n=2, 100 μl 0.01 nM); and, PBS as a vehicle control (n=2, 100 μl). On day 2 mice were then immunized with CFA-MOG35-55 and pertussis to induce EAE. Then NECA or PBS was administered every other day on day 3, day 5, day 7 and day 9. On day 10, mice were injected intravenously with 200 μl 1% Evans Blue dye ([…] total dye injected). Six hours after administration of Evans Blue, mice were anesthetized with a ketamine/xylazine mix and perfused via the left ventricle with ice cold PBS. Brains were harvested and homogenized in n,n-dimethylformamide (DMF) at 5 μl/mg (v:w). Tissue was incubated for 72 hours at room temperature in DMF to extract the dye. Following extraction, the tissue/solvent mixture was centrifuged at 500×g for 30 minutes and 100 μl of supernatant was read on a BioTex spectrophotometer at 620 nm.

HCMECD3 cells = assay: cAMP levels in human brain endothelial cells (cAMP Screen kit); assay type: cell-based; details: 15 minutes
Description: […]3 cells were grown to confluencey on 24 well plates. As adenosine receptor (“AR”) stimulation is known to influence cAMP levels, cells were treated with or without various concentrations of NECA (general AR agonist), CCPA (A1 AR agonist), CGS 21860 (A2A AR agonist), DMSO vehicle, or Forksolin (induces cAMP). After 15 minutes, lysis buffer was added and the cells were frozen at -80 C to stop the reaction. Duplicate samples were used for each condition. cAMP levels were assayed using a cAMP Screen kit (Applied Biosystems, Foster City, Calif.).

Bend.3 cells = assay: Albumin uptake assay; assay type: cell-based, mouse; details: BECs, 1 μM, 30 minutes, vs media and vehicle
Description: Bend.3 cells grown on collagen coated coverslips were incubated with albumin-alexafluor 594 (50 mg/ml) (Invitrogen) and either media alone, DMSO vehicle, NECA (1 μM), or Lexiscan (1 μM) for 30 minutes. Albumin uptake was visualized (albumin=red) utilizing the Zeiss Axio Imager M1 fluorescent microscope. Total albumin fluorescence was recorded using Zeiss Axio Vision software, and measured utilizing Image-J software.

Compound: Nc1nc2c(cnn2CCc2ccccc2)c2nc(-c3ccco3)nn12 [SCH58261, 2-(2-Furanyl)-7-(2-phenylethyl)-7H-pyrazolo[4,3-e][1,2,4]triazolo[1,5-c]pyrimidin-5-amine]
- EAE development (EAE): dramatically protected against EAE development

Compound: CCNC(=O)[C@H]1O[C@@H](n2cnc3c(N)ncnc32)[C@H](O)[C@@H]1O [NECA, 5′-N-ethylcarboxamido adenosine]
- BBB permeability to Evans Blue dye (blood brain barrier): increase in BBB permeability over PBS control EAE mice
- cAMP levels (HCMECD3 cells): increased cAMP levels
- rate of fluorescently-labeled albumin uptake (Bend.3 cells): did not affect the rate of fluorescently-labeled albumin uptake
